Data as given in patent US4188380A, “Surface active quaternary higher dialkyl phosphonium salt biocides and intermediates” (Exxon Research & Engineering Co., priority 1976, dated 1980).
Like-named read-outs stand apart in the source and are kept apart here.

Assays:
Pseudomonas aeruginosa = test: Broth dilution minimum inhibitory concentration, Pseudomonas aeruginosa; assay type: cell-based; conditions: for MIC: Pseudomonas aeruginosa, read-out: Minimum Inhibitory Concentration, Pseudomonas aeruginosa
Protocol: (§1) In the primary biocidal testing of the quaternary higher dialkyl phosphonium salts, broth dilution was used as the primary method to determine the minimum salt concentrations necessary for a complete inhibition of bacterial, fungal and algal growth. Typically, 2 ml per tube of trypticase soy broth was used as nutrient medium. Usually 10 mg of the phosphonium chloride was dissolved in 5 ml ethanol and this was then diluted to 10 ml with water to give an aqueous ethanol stock solution of […] concentration. The inoculum of the microorganism was one drop of a thousandfold diluted 24 hour culture which usually contained 1000 bacteria or 10,000 fungal or algal cells. To the inoculated broth media, different amounts of the experimental chemicals were administered. The media were then observed for visible growth after a period dependent on the type of the microorganism used. Bacterial growth or inhibition was observed after one or two days. Growths of fungi and algae were checked after 7 or 14 days. Observing a series of dilutions of the experimental chemical, minimum growth inhibitory, i.e., microbiostatic, concentrations (MIC) were determined.
(§2) A number of quaternary phosphonium chlorides characterized in Table I were broth dilution tested against an important gram negative bacterial organism, Pseudomonas aeruginosa; a common gram positive bacterium, Staphylococcus aureus, and a widespread fungus, Aspergillus niger, and a common algal organism, Chlorella vulgaris.

Staphylococcus aureus = test: Broth dilution minimum inhibitory concentration, Staphylococcus aureus; assay type: cell-based; conditions: read-out: Minimum Inhibitory Concentration, Staphylococcus aureus
Protocol: as §1, §2

Aspergillus niger = test: Broth dilution minimum inhibitory concentration, Aspergillus niger; assay type: cell-based; conditions: for MIC: Aspergillus niger, read-out: Minimum Inhibitory Concentration, Aspergillus niger
Protocol: as §1, §2

Chlorella vulgaris = test: Broth dilution minimum inhibitory concentration, Chlorella vulgaris; assay type: cell-based; conditions: read-out: Minimum Inhibitory Concentration, Chlorella vulgaris
Protocol: as §1, §2

Escherichia coli = test: Broth dilution minimum inhibitory concentration, Escherichia coli; assay type: cell-based
Protocol: as §1
(§3) To test the breadth of the microbiocidal spectrum of didecyl dimethyl phosphonium chloride, minimum inhibitory concentrations (MIC's) were determined against several additional organisms in broth dilution tests with the following results: […]

Salmonella typhosa = test: Broth dilution minimum inhibitory concentration, Salmonella typhosa; assay type: cell-based; conditions: Salmonella enterica
Protocol: as §1, §3

Candida albicans = test: Broth dilution minimum inhibitory concentration, Candida albicans; assay type: cell-based
Protocol: as §1, §3

Staph. aureus = test: AOAC Germicidal and Sanitizer Test, Staph. aureus; assay type: cell-based; conditions: Staphylococcus aureus
Text: (§4) To determine the effectiveness of a quaternary higher dialkyl phosphonium salt, i.e. didecyl dimethyl phosphonium chloride as a bactericide, the AOAC Germicidal and Sanitizer Test was used.

E. coli = test: AOAC Germicidal and Sanitizer Test, E. coli; assay type: cell-based; conditions: Escherichia coli
Text: as §4

[1] = Acute oral toxicity in Swiss albino mice; assay type: in vivo; conditions: mouse, in vivo, Swiss albino mice, read-out: median lethal toxicity, acute oral
Protocol: (§5) The acute oral toxicity of didecyl dimethyl phosphonium chloride and dioctadecyl diethyl phosphonium chloride was determined using Swiss albino mice. The median lethal toxicities found were 350 and 2840 mg salt per body kg mice, respectively.

mice = test: Acute oral toxicity in Swiss albino mice; assay type: in vivo
Protocol: as §5

[2] = Surface tension of water solutions towards air, ASTM D-971; assay type: physicochemical; conditions: 25°
Protocol: (§6) To obtain standard data for estimating the surface activity of quaternary higher dialkyl phosphonium salts, the surface tensions of their water solutions and the interfacial tensions of their equilibriated solutions in water and a paraffinic hydrocarbon were determined as described by ASTM D-971-50.
(§7) Didodecyl dimethyl phosphonium chloride and, for comparison, octadecyl trimethyl phosphonium chloride were tested as described above, according to ASTM D-971. The surface tension towards air measurement used distilled water at 25°, which gives a base value of 72 dynes per cm. For interfacial tension measurements a water-paraffin (Nujol) system was used. Without any added surfactant, this has an interfacial tension of 52 dynes per cm. The interfacial tension measurements of the phosphonium chloride solutions were made after equal volumes of the two immiscible solvent and the given amount of salt were slowly stirred for 30 minutes to arrive at equilibrium concentrations of the salt.

[3] = Interfacial tension in water-paraffin (Nujol) system, ASTM D-971; assay type: physicochemical; conditions: 25°
Protocol: as §6, §7

[4] = test system: bacterial, fungal and algal growth; test: Microbiocidal activity in general (broth dilution); assay type: cell-based
Protocol: as §1

Compound: CCCCCCCCCC[P+](C)(C)CCCCCCCCCC.[Cl-] [Example 3, Didecyl Dimethyl Phosphonium Chloride]
- activity against Pseudomonas aeruginosa (Pseudomonas aeruginosa): Particularly outstanding
- MIC (Pseudomonas aeruginosa; 24 h): 16 µg/mL
- MIC (Staphylococcus aureus; 48 h): 0.5 µg/mL
- MIC (Aspergillus niger; 336 h): 0.25 µg/mL
- minimum inhibitory concentration against Aspergillus niger relative to didodecyl dimethyl phosphonium chloride (Aspergillus niger; didecyl versus didodecyl compound (Seq. No. 4)): three hundred times smaller
- MIC (Chlorella vulgaris; 336 h): 0.125 µg/mL
- MIC (Escherichia coli): 0.5 µg/mL
- MIC (Salmonella typhosa): 8 µg/mL
- MIC (Candida albicans): 0.25 µg/mL
- killing at 25 ppm (Staph. aureus; read-out: Reduction of live Bacterial Organisms in Distilled Water): 100%
- killing at 25 ppm (Staph. aureus; read-out: Reduction of live Bacterial Organisms in water of 200 ppm Hardness): 100%
- killing at 25 ppm (E. coli; 200 ppm hardness, read-out: Reduction of live Bacterial Organisms in water of 200 ppm Hardness): 99.9%
- killing at 25 ppm (E. coli; distilled water, read-out: Reduction of live Bacterial Organisms in Distilled Water): 100%
- LD50 [1]: 350 mg/kg
- level of oral toxicity (mice): medium level of oral toxicity

Compound: CCCCCCCCCCCCCCCCCC[P+](C)(C)C.[Cl-] [C18 H37 P^+ (CH3)3, octadecyl trimethyl phosphonium chloride, reference compound]
- Surface Tension of Water ([2]; 0.010% salt): 42 Dynes/cm
- Surface Tension of Water ([2]; 0.100% salt): 41 Dynes/cm
- Interfacial Tension of Water-Nujol ([3]; 0.010% salt): 12 Dynes/cm
- Interfacial Tension of Water-Nujol ([3]; 0.100% salt): 10 Dynes/cm

Compound: CCCCCCCC[P+](C)(C)CCCCCCCC.[Cl-] [Example 4, Dioctyl Dimethyl Phosphonium Chloride]
- MIC (Pseudomonas aeruginosa; 24 h, after 1 day): 250 µg/mL
- MIC (Staphylococcus aureus; 48 h, after 2 days): 0.5 µg/mL
- MIC (Aspergillus niger; 336 h, after 14 days): 7.5 µg/mL
- MIC (Chlorella vulgaris; 336 h, after 14 days): 4 µg/mL

Compound: CCCCCCCCCCCCCCCC[P+](CC)(CCCCCCCCCCCCCCCC)CC(C)C.[Cl-] [Example 7, Dihexadecyl Isobutyl Ethyl Phosphonium Chloride]
- activity against Pseudomonas aeruginosa (Pseudomonas aeruginosa): Particularly outstanding
- MIC (Pseudomonas aeruginosa; 24 h, after 1 day): 16 µg/mL
- MIC (Staphylococcus aureus; 24 h, after 1 day): 0.5 µg/mL
- MIC (Aspergillus niger; 336 h, after 14 days): 0.5 µg/mL
- MIC (Chlorella vulgaris; 336 h, after 14 days): 0.5 µg/mL

Compound: CCCCCCCCCCCC[P+](CC)(CCCCCCCCCCCC)CC(C)C.[Cl-] [Example 6, Didodecyl Isobutyl Ethyl Phosphonium Chloride]
- activity against Pseudomonas aeruginosa (Pseudomonas aeruginosa): Particularly outstanding
- MIC (Pseudomonas aeruginosa; 24 h, after 1 day): 16 µg/mL
- MIC (Staphylococcus aureus; 24 h, after 1 day): 0.5 µg/mL
- MIC (Aspergillus niger; 336 h, after 14 days): 1 µg/mL
- MIC (Chlorella vulgaris; 336 h, after 14 days): 0.5 µg/mL
- solubility in toluene (Solubility in toluene): highly soluble in toluene

Compound: CCCCCCCC[P+](C)(CC)CCCCCCCC.[Cl-] [Example 5, Dioctyl Ethyl Methyl Phosphonium Chloride]
- MIC (Pseudomonas aeruginosa; 48 h, after 2 days): 250 µg/mL

Compound: CCCCCCCCCCCC[P+](C)(C)CCCCCCCCCCCC.[Cl-] [Example 1, Didodecyl Dimethyl Phosphonium Chloride]
- Surface Tension of Water ([2]; 0.001% salt): 33 Dynes/cm
- Surface Tension of Water ([2]; 0.0025% salt): 33 Dynes/cm
- Surface Tension of Water ([2]; 0.005% salt): 32 Dynes/cm
- Surface Tension of Water ([2]; 0.0075% salt): 31 Dynes/cm
- Surface Tension of Water ([2]; 0.010% salt): 31 Dynes/cm
- Surface Tension of Water ([2]; 0.100% salt): 29 Dynes/cm
- Interfacial Tension of Water-Nujol ([3]; 0.001% salt): 3 Dynes/cm
- Interfacial Tension of Water-Nujol ([3]; 0.0025% salt): 3 Dynes/cm
- Interfacial Tension of Water-Nujol ([3]; 0.005% salt): 3 Dynes/cm
- Interfacial Tension of Water-Nujol ([3]; 0.0075% salt): 3 Dynes/cm
- Interfacial Tension of Water-Nujol ([3]; 0.010% salt): 3 Dynes/cm
- Interfacial Tension of Water-Nujol ([3]; 0.100% salt): 2 Dynes/cm
- activity against Pseudomonas aeruginosa (Pseudomonas aeruginosa): no significant activity
- MIC (Pseudomonas aeruginosa; 24 h, after 1 day): 2500 µg/mL
- MIC (Staphylococcus aureus; 24 h, after 1 day): 1 µg/mL
- MIC (Aspergillus niger; 168 h, after 7 days): 75 µg/mL
- MIC (Chlorella vulgaris; 168 h, after 7 days): 8 µg/mL

Compound: CCCCCCCCCCCCCCCCCC[P+](CC)(CC)CCCCCCCCCCCCCCCCCC.[Cl-] [Example 8, Dioctadecyl Diethyl Phosphonium Chloride]
- MIC (Pseudomonas aeruginosa; 48 h): 500 µg/mL
- MIC (Staphylococcus aureus; 48 h): 15 µg/mL
- MIC (Aspergillus niger; 336 h): 15 µg/mL
- MIC (Chlorella vulgaris; 336 h): 7.5 µg/mL
- LD50 [1]: 2840 mg/kg
- level of oral toxicity (mice): essential lack of oral toxicity
- microbiocidal activity [4]: not highly active microbiocidally
